{"source": "patent US20080300225A1", "about": "“PESTICIDAL FORMULATION CONTAINING OXYMATRINE OR MATRINE” (Marrone Organic Innovations, priority 2007, published 2008)", "test_system": "Armyworms (Spodoptera exigua)", "test": "Contact study on armyworm first instar larvae", "type": "in vivo", "details": "for mode of insecticidal action: contact exposure of first instar larvae", "description": "Contact Study of MOI 201 on Armyworms (Spodoptera exigua)\nObjective: Observe the mode of action and the symptoms caused by 0.6% oxymatrine on larvae of armyworms, as well as to quantify the time required for the larvae to become paralyzed or dead.\nMethod: Larvae of beet armyworm were taken as first In-star stage and placed on a microscope slide under a stereomicroscope. A drop of the test product was delivered over them and the larvae were left to soak for 30 seconds. Excess liquid was absorbed with a paper towel and the larvae were observed under the microscope. The products tested were Spinosad at 0.3%, Permethrin at 1%, and 0.6% oxymatrine at 800× and 1000× dilutions. Time 1 indicates the time it took before the larva was unable to perform normal activities like crawling, feeding, etc. Time 2 is the additional time needed for complete elimination/death.", "key": {"[1]": {"details": "Spinosad at 0.3%, Permethrin at 1%, 30 s soak, average of 5 reps"}, "[2]": {"details": "Spinosad at 0.3%, Permethrin at 1%, 30 s soak, reps 1-5"}}, "note": "“And” between values parts separate entries of the source, which are not always exact repeats. Equal entries are not always repeated. Where two headings read alike, the source gives them in different places."}
{"compound": "CC1(C)C(C=C(Cl)Cl)C1C(=O)OCc1cccc(Oc2ccccc2)c1", "note": "(centres unmarked) [Permethrin]", "values": [{"measurement": "Time 1: time required for paralysis or convulsions, Average", "result": 1.22, "unit": "min"}, {"measurement": "period of time to affect the insect's basic functions", "result": 1.2, "unit": "min"}, {"measurement": "Time 2: time between paralysis and death, Average", "setting": "[1]", "result": 333.60, "unit": "min"}, {"measurement": "Time 2: time between paralysis and death, single replicate", "setting": "[2]", "result": "447 min and 428 min and 397 min and 97 min and 299 min"}, {"measurement": "mode of insecticidal action", "result": "work as contact insecticides"}]}
{"compound": "Spinosad", "values": [{"measurement": "Time 1: time required for paralysis or convulsions, Average", "setting": "[1]", "result": 6.99, "unit": "min"}, {"measurement": "Time 2: time between paralysis and death, Average", "setting": "[1]", "result": 289.00, "unit": "min"}, {"measurement": "Time 1: time required for paralysis or convulsions, single replicate", "setting": "[2]", "result": "7.58 min and 8.46 min and 6.33 min and 6.4 min and 6.17 min"}, {"measurement": "Time 2: time between paralysis and death, single replicate", "setting": "[2]", "result": "146 min and 180 min and 363 min and 373 min and 383 min"}, {"measurement": "mode of insecticidal action", "result": "work as contact insecticides"}, {"measurement": "period of time to affect the insect's basic functions", "setting": "text summary of Time 1, Spinosad 0.3%, Permethrin 1%, 0.6% oxymatrine at 800x and 1000x dilutions", "result": 7.0, "unit": "min"}]}
